Our source for the Kd and MANT-GDP dissociation from recombinant EhRho1 in presence of HA-EhGEF, compared with HsRhoA and EhRab1a values is PMC8648123, “An atypical EhGEF regulates phagocytosis in Entamoeba histolytica through EhRho1” (PLoS Pathogens, 2021).

One experiment addresses T1, EhGEF (Entamoeba histolytica, UniProt C4LYE4).
T1 construct: gene EHI_008090; recombinant protein lacking PH domain (EhGEFΔPH), putative GEF domain
The experiment can be described thus: tryptophan fluorescence quenching titration. The class given is binding.

Experiment [1] addresses GST-tagged EhRho1 (wild type) (Entamoeba histolytica).

Molecule `Nc1nc2c(ncn2[C@@H]2O[C@H](COP(=O)(O)OP(=O)(O)OP(=O)(O)O)[C@@H](O)[C@H]2O)c(=O)[nH]1` [GTP] registered a Kd at EhGEF of 298 µM.

B1: HA-tagged EhGEF (full length wild type) (natural protein)
chain: MSEELKISVESLRPALFEGWGKKQGGSVKTWKKRWFVLKDNRLWYFASKTAEEAKGFIELPPGTETKDVSQNKKFMFSINSRNTKGSRVFYIVTENSVDHATFFDAVRKVLNKSSPSSVPAAQSTTPVNVPKAENQFTLQGNNSSTGLSTSTQPVTSTIPPMADAVNIPNSLQPKCDGRKNINKIKAKISWLQVEGENVVEFWKYWMDSTPQSDALEVGQSIQFMLVVSGNTEKLSWRVFGPQGALIQNMVDFFWNVGAPDEEIDHLNNLGCQINPSEIGSWIDMSVMNGMDGGWFFKGDLVCDVIRDTADKCEYAERLITWAKEHGLNYLCQMGRDMGATPPRQSEFRFKLDGVISSRMEKVHSAFTTFGFPPIPVNIVEILTNLPPVYTYFYLCVIVSSEGFVKISILVPAPKQDVVDAFLFAMSDVKDTHIALHKDITNTLGNTPLFVEYCYLNPGYGYEVYKEGADVLVHYNLGSESR
B1: the MANT-GDP dissociation from recombinant EhRho1 in presence of HA-EhGEF, compared with HsRhoA and EhRab1a in experiment [1] came to 2 fold.

As a reminder, the Kd is the equilibrium constant for the complex coming apart.
